{"source": "patent US6300327A", "about": "“Compositions and methods for potentiation of neurotrophin activity” (The University of Southern California, priority 1997, dated 2001)", "key": {"[1]": {"system": "forebrain cholinergic neurons (cultures of rat basal forebrain)", "test": "ChAT activity in primary cultures of fetal rat basal forebrain (septal) cholinergic neurons treated with neurotrophins and K-252 compounds", "assay_type": "cell-based", "description": "Recombinant human NGF (rhNGF), BDNF (rhBDNF), and NT-3 (rhNT-3) and K-252b were added to primary cultures of fetal rat brain neurons containing either forebrain cholinergic or midbrain dopaminergic neurons. A broad range of concentrations of K-252b were tested in presence of 50 ng/ml rhNGF, 200 ng/ml rhBDNF and 1 μg/ml rhNT-3, growth factor concentrations producing maximal trophic actions on cholinergic neurons. The trophic action was monitored by measuring the activity of ChAT, a parameter reflecting both survival and transmitter-specific differentiation of cholinergic cells.\n(§1) Primary cultures of fetal rat brain septal and mesencephalic cells were prepared in a heretofore known manner [Knusel et al., supra]. Briefly, defined areas were dissected from fetal rat brains (Wistar, E15-16, Charles River, Mass.). The septal area contained the cholinergic neurons from septum, diagonal band of Broca and nucleus basalis. The ventral mesencephalon containing the dopaminergic neurons of the substantia nigra and the ventral tegmental area was dissected and dissociated mechanically. The cells were plated in 16 mm multiwell plates precoated with polyethyleneimine (1 mg/ml, 37° C., overnight), containing 0.5 ml modified L-15 medium supplemented with 5% heat inactivated horse serum and 0.5% heat inactivated fetal calf serum. Modified L-15 was prepared [Knusel et al., \"Selective and Nonselective Stimulation of Central Cholinergic and dopaminergic Development in vitro by Nerve Growth Factor, Basic Fibroblast Growth Factor, Epidermal Growth Factor, Insulin and the Insulin-like Growth Factors I and II,\" J. Neurosci. 10:558-570 (1990)] by adding various amino acids, vitamins, antibiotics, glucose and NaHCO3 to Leibovitz's L-15 medium (Gibco, Grand Island, N.Y.). Plating densities were 4×10^5 cells/cm^2 for basal forebrain cultures and 3×10^5 cells/cm^2 for mesencephalic cultures. Of these cells, 0.5 to 1% were cholinergic or dopaminergic, respectively. Growth factors were typically added on the second day of culture and the cells were grown for 5 or more days. For ChAT assays tissue was homogenized in 250 μl of 50 mM Tris-HCl buffer, pH 6.0 with 0.3% Triton X-100. [1-^14 C]acetylcoenzyme A (NEN) concentration was 20 μM and specific activity 4.09 Ci/mol. To measure dopamine uptake, cultures were preincubated for 5 min at 37° C. with 250 μl incubation solution (5 mM glucose, 1 mM ascorbic acid in PBS) containing 1 mM pargyline. [^3 H]dopamine (37 Ci/mmol) was then added to give a final concentration of 50 nM and the cultures were incubated for another 15 minutes. Blanks were obtained by incubating cells at 0° C.\nFIG. 1 illustrates levels of ChAT activity in cultures of rat basal forebrain treated with rhNGF, rhBDNF, or rhNT- and K-252b. Growth factors were added on the second day of culture and the cells were grown for 5 days. Growth factor concentrations producing maximal elevations of ChAT activity were used. In FIG. 1, .largecircle. represents the control; .quadrature., 50 ng/ml rhNGF; Δ, 200 ng/ml rhBDNF; and .tangle-soliddn., 1 μg/ml rhNT-3. The ChAT stimulation mediated by all three neurotrophins was inhibited by K-252b at concentrations above 200 nM. […] N=4 per data point. Error bars represent SEMs and were omitted where they would have appeared smaller than the symbol.\nThese compounds were accordingly tested for possible NT-3 potentiation at lower concentrations than necessary for NGF inhibition. Culture conditions were as described in Example 1. Cultures were untreated (controls) or treated with 200 ng/ml NT-3 and increasing concentrations of the inhibitors. The findings are shown in FIG. 6, in which \"Stau\", \"K2a\", \"K2b\", \"K57\", \"K58\", \"K59\" represent, respectively, staurosporine, K-252a, K-252b, KT5720, KT5823, and KT5296. […] Staurosporine and KT5296 were ineffective."}, "[2]": {"system": "phospholipase C gamma-1", "test": "Tyrosine phosphorylation of phospholipase C gamma-1 and other cellular proteins in PC12 cells", "assay_type": "cell-based", "description": "To measure the status of trk tyrosine phosphorylation, PC12 cells were lysed and immunoprecipitated with anti-trk serum. The trk proteins were subjected to 7.5% SDS-PAGE and analyzed by immunoblotting with anti-phosphotyrosine antibodies as described in detail in the literature [Kaplan, D. R. et al., \"PDGF beta receptor stimulates tyrosine phosphorylation of GAP and association of GAP with a signaling complex,\" Cell 61:125-133 (1990)]. Tyrosine phosphorylation of cellular proteins was assayed by probing Western blots of lysates of PC12 cells incubated with K-252b and NT-3 or NGF with anti-phosphotyrosine antibodies. Phospholipase C gammal was identified in these blots as described elsewhere [Vetter, M.L. et al., \"Nerve growth factor rapidly stimulates tyrosine phosphorylation of phospholipase C-gammal by a kinase activity associated with the product of trk protooncogene,\" Proc. Natl Acad. Sci. USA 88:5650-5654 (1991)]."}, "[3]": {"system": "midbrain dopaminergic neurons (cultures of ventral mesencephalon)", "test": "Dopamine uptake in primary cultures of fetal rat ventral mesencephalon", "assay_type": "cell-based", "conditions": "for activity at 5 µM: Rattus norvegicus, Neuron; for Dopamine uptake, Mean ± SEM: n=4", "description": "as §1\nIn Table 1, dopamine uptake is given as fmol/min/culture dish. Cultures were grown in 24-well plates for 7 days in L-15 medium with 5% horse and 0.5% fetal bovine serum and treated with growth factors and K-252b from the second day of culture. rhBDNF, 200 ng/ml; des-IGF-1, 1 μg/ml; n=4; *different from respective control group, p <0.01 (Student's t-test). The apparent difference between control cultures grown in presence and absence of K-252b was statistically not significant. The experiment shown is a representative case of a total of 5 independent experiments."}, "[4]": {"system": "trk", "test": "Cell-free tyrosine phosphorylation of recombinant human trk expressed in Sf9 insect cells", "assay_type": "biochemical", "conditions": "10 μM K-252b", "description": "Human trk and trkB were expressed in Sf9 insect cells transfected using a baculovirus system. The trk proteins were immunoprecipitated as described above and the precipitates were incubated with 20 μCi [gamma-^32 P]ATP, 10 mM MnCl2, 20 mM Tris, pH 7.4, for 5 min at 25° C. in the presence of increasing amounts of K-252b or control solution. Phosphorylated proteins were analyzed as described for FIG. 4B. The tyrosine kinase activity of the trk and trkB proteins was activated in the absence of ligand, a common observation for receptor tyrosine kinase produced in the baculovirus system. The trk and trkB proteins were 25% pure as assayed by SDS-PAGE.\nK-252b interacts directly with the trk and trkB protein. Human trk and trkB were expressed in Sf9 insect cells transfected using a baculovirus system. trk proteins were immunoprecipitated and the precipitates were incubated with [gamma^32 P]ATP in the presence of increasing amounts of K-252b or control solution."}}, "note": "Entries after “also recorded” stand apart in the source; their conditions may differ. Where two headings read alike, the source gives them in different places.", "data": [{"smiles": "CC12OC(CC1(O)C(=O)O)n1c3ccccc3c3c4c(c5c6ccccc6n2c5c31)CNC4=O", "note": "(centres unmarked) [K-252b]", "values": [{"measurement": "effect on ChAT actions of NGF or BDNF", "setting": "[1]; 100 pM to 30 nM K-252b", "result": "without affecting"}, {"measurement": "effect on potency and maximal efficacy of NT-3 (ChAT)", "setting": "[1]; 50 nM K-252b", "result": "increased both potency and maximal efficacy"}, {"measurement": "effect on NT-3 stimulation of ChAT activity", "setting": "[1]; 10-100 nM K-252b with NT-3", "result": "same stimulatory effect as NGF"}, {"measurement": "IC100", "setting": "[1]; Rattus norvegicus, Neuron, read-out: minimal concentration required to completely abolish the ChAT responses", "result": "~2", "unit": "µM"}, {"measurement": "effect on stimulatory effects of NGF or BDNF on cholinergic neurons", "setting": "[1]; low concentrations of K-252b", "result": "not potentiated"}, {"measurement": "effect on ChAT increases mediated by bFGF, insulin and insulin-like growth factor-1", "setting": "[1]; non-neurotrophin growth factors", "result": "not affected"}, {"measurement": "effect on trophic action of NGF on cholinergic neurons (ChAT)", "setting": "[1]; relatively high dosages", "result": "completely and selectively prevent"}, {"measurement": "inhibition of action of central cholinergic neurons", "setting": "[1]; structural relatives, Example 6", "result": "inhibition"}, {"measurement": "NT-3 mediated tyrosine phosphorylation of phospholipase C gamma-1 and other proteins", "setting": "[2]; 50 nM K-252b + NT-3", "result": "enhanced"}, {"measurement": "tyrosine phosphorylation of phospholipase C gamma-1 and other proteins in NGF treated cells", "setting": "[2]; K-252b + NGF", "result": "inhibited"}, {"measurement": "effect on increase in dopamine uptake mediated by BDNF", "setting": "[3]; K-252b 5 μM (Table 1)", "result": "prevented the increase in dopamine uptake; also recorded: inhibits the stimulatory action"}, {"measurement": "activity at 5 µM", "setting": "[3]; read-out: Dopamine uptake, % of Control, With K-252b (5 μM) + des-IGF-1 1 μg/ml", "result": 201, "unit": "%"}, {"measurement": "activity at 5 µM", "setting": "[3]; read-out: Dopamine uptake, % of Control, With K-252b (5 μM) + rhBDNF 200 ng/ml", "result": 119, "unit": "%"}, {"measurement": "Dopamine uptake, Mean ± SEM", "setting": "[3]; With K-252b (5 μM) + des-IGF-1 1 μg/ml", "result": "22.9 ± 1.0", "unit": "fmol/min/culture dish"}, {"measurement": "Dopamine uptake, Mean ± SEM", "setting": "[3]; With K-252b (5 μM) + rhBDNF 200 ng/ml", "result": "13.6 ± 0.7", "unit": "fmol/min/culture dish"}, {"measurement": "Dopamine uptake, Mean ± SEM", "setting": "[3]; With K-252b (5 μM), no growth factor (Control)", "result": "11.4 ± 0.2", "unit": "fmol/min/culture dish"}, {"measurement": "effect on stimulatory action of bFGF and insulin on dopamine uptake", "setting": "[3]; bFGF and insulin", "result": "does not inhibit"}, {"measurement": "effect on stimulatory action of des-IGF-1 on dopamine uptake", "setting": "[3]; des-IGF-1 1 μg/ml", "result": "not to inhibit"}, {"measurement": "effect on action of BDNF on dopaminergic neurons", "setting": "[3]; low concentrations of K-252b", "result": "did not potentiate"}, {"measurement": "effect on trk tyrosine phosphorylation, cell-free system", "setting": "[4]", "result": "completely prevented"}]}]}
